# Measurements as given in patent US10335418B2, “Methods and compositions for treating metabolic syndrome” (Topokine Therapeutics, Inc., priority 2011, dated 2019).
# Tests used:
# [1] = Weight gain and condition, 4-week repeat-dose trial in (db-/db-) mice; type: in vivo
# Description: A randomized, controlled, repeat-dose, 4-week trial was conducted on (db−/db−) mice, which are defective for the leptin receptor (Jackson Laboratories). These mice are genetically obese, dyslipidemic, and diabetic.
# (§1) Methods: Mice were obtained from Jackson Laboratories and acclimated to the facility. At about 5 weeks of age, mice were prospectively randomized into groups and assigned to the treatment conditions shown in FIG. 1. Topical treatments were applied in a thin film to the right flank skin without occlusive dressings; subcutaneous injections were also administered to the right flank. […] They were housed in the same room, in 11 cages according to group, and fed ad libitum. Skin tissue was sampled and serum lipids tested on day 28. Tissue was fixed in formalin and stained with hematoxylin and eosin.
# [2] = Serum lipids on day 28, (db-/db-) mice; type: in vivo
# Description: as §1
# FIG. 5 charts the triglyceride and total cholesterol results (mg/dl) for the topical treatment conditions as follows: Group 1=C, 3=D, 4=E, 5=F, 6=G, 10=H, 11=I.
# [3] = tested on: subcutaneous fat; experiment: Histologic sections of skin and subcutaneous fat, (db-/db-) mice; type: in vivo; details: for adipocytes and adipose layer, treated (right) flank / adipocytes and adipose layer, untreated (left) flank: day 28; for local versus systemic effect by histology: topical, concentration up to 0.3%
# Description: as §1
# All sections are shown at the same magnification (scale bar at top right=640 microns). The surface of the skin is oriented toward the top and left of each panel. Arrows in each section denote the panniculus carnosus, an anatomic layer that separates the first layer of subdermal fat from deeper, subpannicular fat (separation artifact is commonly seen deep to the panniculus and is not an in vivo process).
# [4] = Projected systemic dose, mouse (FIG. 12); type: in vivo; details: topical, 100% serum bioavailability assumed
# Source text: (§2) FIG. 12 compares various topical doses of latanoprost in mouse, rat, and human, with respect to projected systemic dose. All calculations assume once-daily dosing and 100% serum bioavailability. The derivation of each dose is set forth based on the animal body weight, drug concentration, and drug volume. Finally, doses are scaled allometrically for body surface area (mg/m^2/d), as is appropriate for most low-molecular-weight molecules.
# [5] = obese adults, 120 mg three times daily, after two years; cited from earlier work
# [6] = Clinical application: person with metabolic syndrome, latanoprost transdermal 0.7% gel (Example 7); type: in vivo, human; details: 2 ml once daily, 1 to 6 months
# Description: The following description exemplifies a clinical application of the invention to treat obesity, dyslipidemia, and type 2 diabetes mellitus in a person with metabolic syndrome.
# A person is suffers from obesity, dyslipidemia, and type 2 diabetes. […] Their waist circumference is 42 inches. Their noninvasive blood pressure is 184/98. Their fasting serum glucose is […] and their glycated hemoglobin (hemoglobin A1C) is 8.1. Fasting serum lipids are as follows: triglycerides, 220 mg/dL; total cholesterol, 310 mg/dL, LDL 240 mg/dL, HDL, 35 mg/dL. Their physical exam is notable for prominent central (abdominal) obesity. In addition to medical therapy, the person's physician recommends a regimen of diet and exercise. After six months the person's weight, hemoglobin A1C, serum glucose, and serum lipids are unimproved. The physician prescribes systemic therapy with latanoprost, for example, a transdermal 0.7% gel in a metered-dose dispenser, with instructions to apply 2 ml metered dose once daily to the skin of the shoulders. After a period of time, for example from 1 to 6 months, the person's weight is reduced. Serum glucose, hemoglobin A1C, fasting serum LDL, and fasting serum triglycerides also diminish. Fasting serum HDL rises.
# [7] = Human ophthalmic dose and projected human transdermal dose (FIG. 12); details: by comparison to minimum effective dose in the rat
# Source text: as §2
# [8] = Minimum effective dose and projected systemic dose, rat (FIG. 12); type: in vivo
# Source text: These effects were dose-dependent, and the minimum effective dose for these effects was deemed to be the 0.05% concentration.
# as §2
# [9] = Oral Glucose Tolerance Test on day 29, ZDF rats; type: in vivo; details: for oral glucose tolerance: day 29; for serum glucose AUC15-120 lower compared to vehicle-treated animals: 15 to 120 minutes post-glucose load
# Description: (§3) Methods: Male ZDF rats, approximately 8 weeks old, were obtained from Jackson Laboratories and acclimated to the facility. There were 3 animals per treatment arm. Test articles were applied in a thin film to the right flank without occlusive dressings, at 0.3 ml daily for 28 days. Rats were fed ad libitum and housed in the same room in 4 cages according to group. […] Food consumption was measured by residual weight of chow. Animals were fasted overnight prior to day 29, and Oral Glucose Tolerance Tests were conducted on day 29 (1 g glucose per kg body weight). Skin tissue and serum chemistries were collected at day 29.
# [10] = tested on: subcutaneous fat; experiment: Histologic sections of skin and subcutaneous fat, ZDF rats; type: in vivo
# Description: as §3
# All sections are shown at the same magnification (scale bar at top right=500 microns). The surface of the skin is oriented toward the top of each panel.
# [11] = Serum lipid levels on day 29, ZDF rats; type: in vivo
# Description: as §3
# [12] = in vivo; cited from earlier work
# [13] = Weight gain, food consumption and condition, 4-week study of latanoprost transdermal cream in ZDF rats; type: in vivo; details: for mean weight gain for days 0 to 29: 0.3 ml daily, vs vehicle
# Description: A controlled, repeat-dose, 4-week, dose-ranging study of latanoprost transdermal cream was conducted in Zucker Diabetic Fatty (ZDF) rats (ZDF-Lepr^fa/Crl), which are defective for the leptin receptor, obese, hyperlipidemic, and diabetic.
# as §3
# [14] = Clinical application: person with dyslipidemia, oral extended-release tafluprost (Example 8); type: in vivo, human; details: oral extended-release 5 mg daily, 1 to 6 months
# Source text: The following description exemplifies a clinical application of the invention to reduce lipid concentrations in a patient with dyslipidemia and a history of coronary artery disease and myocardial infarction. A person with a history of obesity, hyperlipidemia, coronary artery disease, and myocardial infarction is found to have elevated serum triglycerides, total cholesterol, and low density lipoprotein, despite use of a statin. The person's physician prescribes an oral, extended-release formulation of tafluprost, for example, an extended-release tablet comprising 5 mg tafluprost, with instructions to take one capsule by mouth daily. After a period of time, for example from 1 to 6 months, the person's serum triglycerides, total cholesterol, and low density lipoprotein concentrations are reduced. Body weight is also seen to improve.
# [15] = transdermal/topical to right flank skin, vs vehicle
# [16] = topical 0.5% and 0.05%, day 29, vs vehicle, not statistically significant
smiles,measurement,setting,value
"O=C(O)CCC/C=C\C[C@@H]1[C@@H](/C=C/[C@@H](O)CCc2ccccc2)[C@H](O)C[C@@H]1O [BFA, 17-phenyl trinor prostaglandin F2α]",mean weight gain for days 0 to 28,[1]; intraperitoneal,no significant effect on weight gain
same,mean weight gain for days 0 to 28,"[1]; subcutaneous, right flank",no significant effect on weight gain
same,mean weight gain for days 0 to 28,[1]; [15],reduced weight gain significantly and in a dose-dependent manner
same,serum lipids,"[2]; intraperitoneal, day 28",no significant effect on serum lipids
same,serum lipids,"[2]; subcutaneous, day 28",no significant effect on serum lipids
same,serum triglycerides,"[2]; transdermal 0.1% or 0.3%, unfasted, day 28, vs control",significantly reduced
"CC(C)OC(=O)CCC/C=C\C[C@@H]1[C@@H](/C=C/[C@@H](O)CCc2ccccc2)[C@H](O)C[C@@H]1O [BIE, 17-phenyl trinor prostaglandin F2α isopropyl ester]",adipocytes deep to the panniculus,[3]; topical 0.3%,profound shrinkage of adipocytes deep to the panniculus
same,"adipocytes and adipose layer, treated (right) flank",[3]; topical 0.3%,smaller adipocytes and thinner adipocyte layers
same,"adipocytes and adipose layer, untreated (left) flank",[3]; topical 0.3%,smaller adipocytes and thinner adipocyte layers
same,local versus systemic effect by histology,[3],indicative of a systemic effect
same,systemic dose at which serum lipids and obesity responded,[4],10 mg/m^2/d
same,mean weight gain for days 0 to 28,"[1]; subcutaneous, right flank",no significant effect on weight gain
same,"potency of transdermal BIE relative to transdermal BFA, for each effect (weight gain, serum lipids)",[1]; transdermal,more potent
same,mean weight gain for days 0 to 28,[1]; [15],reduced weight gain significantly and in a dose-dependent manner
same,serum lipids,"[2]; subcutaneous, day 28",no significant effect on serum lipids
same,serum total cholesterol,"[2]; transdermal 0.1%, unfasted, day 28",significantly lower
CCCCCCCCCCC[C@@H](C[C@@H]1OC(=O)[C@H]1CCCCCC)OC(=O)[C@H](CC(C)C)NC=O [Orlistat],loss of baseline body weight,[5],8.8%
same,serum lipids and serum glucose,[5],not accompanied by any absolute improvement in serum lipids or serum glucose
"CCNC(=O)CCC/C=C\C[C@@H]1[C@@H](/C=C/[C@@H](O)CCc2ccccc2)[C@H](O)C[C@@H]1O [bimatoprost, 17-phenyl trinor prostaglandin F2α ethyl amide]","adipocytes and adipose layer, treated (right) flank",[3]; topical 0.3%,smaller adipocytes and a thinner adipose layer
same,"adipocytes and adipose layer, untreated (left) flank",[3]; topical 0.3%,resembled that of a vehicle-treated animal
same,local versus systemic effect by histology,[3],"local effect, but not a systemic effect"
same,serum lipids,"[2]; topical, day 28",no significant effect on serum lipids
"CC(C)OC(=O)CCC/C=C\C[C@@H]1[C@@H](CC[C@@H](O)CCc2ccccc2)[C@H](O)C[C@@H]1O [latanoprost, 17-phenyl-13,14-dihydro trinor prostaglandin F2α isopropyl ester]",fasting serum HDL,[6],rises
same,"serum glucose, hemoglobin A1C, fasting serum LDL, fasting serum triglycerides",[6],diminish
same,weight,[6],reduced
same,"predicted human transdermal dose sufficient for systemic benefit (serum lipids, diabetic condition, obesity)",[7],about 7 mg per day
same,"minimum effective dose of topical latanoprost, as concentration","[8]; rat, equivalent of 0.05%",0.5 mg/mL
same,systemic dose corresponding to minimum effective topical dose,"[8]; rat, once-daily dosing, 100% serum bioavailability assumed, scaled for body surface area",3.6 mg/m^2/d
same,"minimum effective dose (concentration) for weight gain, serum lipids, glucose tolerance","[8]; transdermal, ZDF rat",0.05%
same,oral glucose tolerance,[9]; topical 0.005%,no effect on oral glucose tolerance
same,serum glucose AUC15-120 lower compared to vehicle-treated animals,[9]; topical 0.05%,12%
same,oral glucose tolerance,[9]; topical 0.5% and 0.05%,dose-dependent improvements in oral glucose tolerance
same,serum glucose AUC15-120 lower compared to vehicle-treated animals,[9]; topical 0.5%,26%
same,"adipocytes and adipose layer, treated (right) flank",[10]; topical 0.005%,"fewer and smaller adipocytes, and a thinner adipose layer"
same,"adipocytes and adipose layer, untreated (left) flank",[10]; topical 0.005%,resembled that of a vehicle-treated animal
same,local versus systemic effect by histology,[10]; topical 0.005%,"local effect, but not a systemic effect"
same,"adipocytes, adipose layer and dermis, treated flank",[10]; topical 0.5%,"fewer and smaller adipocytes, and thinner adipose layer and dermis"
same,"adipocytes, adipose layer and dermis, untreated flank",[10]; topical 0.5%,"fewer and smaller adipocytes, and thinner adipose layer and dermis"
same,local versus systemic effect by histology,[10]; topical 0.5%,indicative of a systemic effect
same,"serum lipid benefits (triglycerides, LDL, HDL, HDL:LDL ratio)","[11]; topical 0.005%, day 29",absent
same,HDL:LDL ratio,"[11]; topical 0.5% and 0.05%, day 29, vs vehicle, 0.5% one-sided p<0.05",dose-dependent increases
same,serum HDL,[11]; [16],dose-dependent increases
same,serum LDL,[11]; [16],dose-dependent reductions
same,serum triglycerides,[11]; [16],dose-dependent reductions
same,serum elimination half-life,[12],about 17 minutes
same,mean weight gain for days 0 to 29,[13]; topical 0.005%,dose-dependent reductions in weight gain
same,daily observations and skin condition,"[13]; topical 0.005-0.5%, 28 days",unremarkable
same,mean weight gain for days 0 to 29,[13]; topical 0.05%,"dose-dependent reductions in weight gain, which were statistically significant"
same,mean weight gain for days 0 to 29,[13]; topical 0.5%,"dose-dependent reductions in weight gain, which were statistically significant"
CC(C)OC(=O)CCC/C=C\C[C@@H]1[C@@H](/C=C/C(F)(F)COc2ccccc2)[C@H](O)C[C@@H]1O [tafluprost],body weight,[14],improve
same,"serum triglycerides, total cholesterol, low density lipoprotein concentrations",[14],reduced
